Data from patent US7645802B2 (Biovail Laboratories International SRL., priority 2005, dated 2010).
Counter-ions that a name gives are not always drawn.

Columns and labels:
[1] = Closed vial / closed glass bottle stability (40° C./75% RH) of bupropion salt APIs; type: physicochemical
mice = assay: Proconvulsant properties of bupropion salts: clonic convulsions in mice; details: for Mean Number of Convulsions/Mouse / Total Number of convulsions: N=13
Experimental: Number of convulsions and the intensity of the convulsions were recorded.
Mild: Head and tail slightly extended and little jerking; Moderate: Head and tail fully extended with some jerking; Severe: Head and tail fully extended with strong jerking. […] Step 2: To further investigate the patterns of convulsion occurrence using loglinear Poisson regression models. The number of convulsions was analyzed using the loglinear Poisson regression models with formulation, dose, and severity as predictors.

CD-1 mice = assay: clonic convulsions in CD-1 mice after intraperitoneal dosing (range finding and main study)
Experimental: Two studies were performed to investigate the relative proconvulsant properties of the two bupropion salts. In the first instance a range finding study was performed to establish the appropriate dose range for the main study. In each study the mice were divided into two dose groups and injected intraperitoneally with either bupropion HCl or bupropion HBr.
A clonic convulsion was defined as a stiffening of the animal followed by jerking movements. The convulsions were classified as mild, moderate and severe according to the following descriptions.
Mild: Head and tail slightly extended and little jerking
Moderate: Head and tail fully extended with some jerking
Severe: Head and tail fully extended with strong jerking
Post-treatment findings recorded included continuous observation for 120 minutes for evidence of clonic convulsions, and intermittent (fixed) observations for 24 hours for other signs, including tonic convulsions, movement, activity, paralysis, gait and evidence of recovery.

[2] = Dynamic Vapour Sorption (DVS) analysis
[3] = forced degradation of bupropion HBr and HCl in the presence of excipients at 55° C., 55° C./100% RH, 100° C., 105° C. (incl. TGA at 100° C.); type: physicochemical; details: in the presence of excipients, 55° C., 55° C./100% RH, 100° C., 105° C.
Experimental: Further forced degradation studies were carried out at 55° C., at 55° C. and 100% relative humidity, at 100° C., and at 105° C. on both the HCl and HBr Bupropion salts in the presence of excipients. […] FIG. 53 is a graph showing the loss of each salt over time in a TGA experiment at 100° C.

[4] = Solubility and other physical properties, Bupropion HBr vs Bupropion HCl; details: HCl from Erregierre, HBr from Chemi; hydrobromide
[5] = 10-Days, closed glass bottle 40 C./75% RH, HBr Lot# STN07491, HCl Lot# STN06973, hydrobromide
[6] = 10 Days, closed glass bottle 40 C./75% RH, HBr Lot# STN07492, HCl Lot# STN06978, hydrobromide
[7] = 14-Days, closed glass bottle 40° C./75% RH, HBr Lot# STN07492, HCl L# STN06973, hydrobromide
[8] = 24 Days, closed glass bottle 40° C./75% RH, HBr Lot# STN07492, HCl L# STN06973, hydrobromide
[9] = Initial, closed glass bottle 40 C./75% RH, HBr Lot# STN07491, HCl Lot# STN06973, hydrobromide
[10] = Initial, closed glass bottle 40 C./75% RH, HBr Lot# STN07492, HCl Lot# STN06978, hydrobromide
[11] = Initial, closed glass bottle 40° C./75% RH, HBr Lot# STN07492, HCl L# STN06973, hydrobromide
[12] = 150 mg/kg, Moderate, hydrobromide
[13] = 150 mg/kg, Severe, hydrobromide
[14] = 100 mg/kg i.p., pooled data N = 13/dose group, hydrobromide
[15] = 150 mg/kg i.p., pooled data N = 13/dose group, hydrobromide

Compound: CC(NC(C)(C)C)C(=O)c1cccc(Cl)c1 (stereo not drawn) [Bupropion HBr, bupropion hydrobromide]
- % Assay [1, 5]: 98.2%
- % Impurities 3-CBZ [1, 5]: 0.070%
- % Impurities 20U78/dilu [1, 5]: 0.051%
- % Impurities 827U76 [1, 5]: 0.039%
- % Impurities 852U77 [1, 5]: 0.125%
- % Impurities Total (%) [1, 5]: 0.42%
- % Impurities Total unknown [1, 5]: 0.129%
- % Assay [1, 6]: 99.2%
- % Impurities 3-CBZ [1, 6]: 0.031%
- % Impurities 20U78/dilu [1, 6]: 0.044%
- % Impurities 852U77 [1, 6]: 0.055%
- % Impurities Total (%) [1, 6]: 0.24%
- % Impurities Total unknown [1, 6]: 0.15%
- % Impurities 827U76 ([1]; 14-Days, closed glass bottle 40° C./75% RH, HBr Lot# STN07492, HCl L# STN06973): 0.012%
- % Assay [1, 7]: 98.8%
- % Impurities 3-CBZ [1, 7]: 0.015%
- % Impurities 20U78/dilu [1, 7]: 0.048%
- % Impurities 852U77 [1, 7]: 0.058%
- % Impurities Total (%) [1, 7]: 0.23%
- % Impurities Total unknown [1, 7]: 0.105%
- % Assay [1, 8]: 99.5%
- % Impurities 3-CBZ [1, 8]: 0.022%
- % Impurities 20U78/dilu [1, 8]: 0.038%
- % Impurities 827U76 [1, 8]: 0.016%
- % Impurities 852U77 [1, 8]: 0.052%
- % Impurities Total (%) [1, 8]: 0.23%
- % Impurities Total unknown [1, 8]: 0.104%
- % Assay [1, 9]: 99.5%
- % Impurities 3-CBZ [1, 9]: 0.011%
- % Impurities 20U78/dilu [1, 9]: 0.041%
- % Impurities Total (%) [1, 9]: 0.17%
- % Impurities Total unknown [1, 9]: 0.129%
- % Assay [1, 10]: 99.6%
- % Impurities 3-CBZ [1, 10]: 0.007%
- % Impurities 20U78/dilu [1, 10]: 0.041%
- % Impurities Total (%) [1, 10]: 0.23%
- % Impurities Total unknown [1, 10]: 0.194%
- % Assay [1, 11]: 99.6%
- % Impurities 3-CBZ [1, 11]: 0.007%
- % Impurities 20U78/dilu [1, 11]: 0.044%
- % Impurities 852U77 [1, 11]: 0.009%
- % Impurities Total (%) [1, 11]: 0.16%
- % Impurities Total unknown [1, 11]: 0.098%
- Mean Number of Convulsions/Mouse, cumulative (mice; 100 mg/kg, All, hydrobromide): 0.77
- Mean Number of Convulsions/Mouse (mice; 100 mg/kg, Mild, hydrobromide): 0.69
- Total Number of convulsions (mice; 100 mg/kg, Mild, hydrobromide): 9
- Mean Number of Convulsions/Mouse (mice; 100 mg/kg, Moderate): 0.08
- Mean Number of Convulsions/Mouse, cumulative (mice; 100 mg/kg, Severe + Moderate, hydrobromide): 0.08
- Mean Number of Convulsions/Mouse (mice; 100 mg/kg, Severe, 120 min observation, hydrobromide): 0.0
- Total Number of convulsions (mice; 100 mg/kg, Severe, hydrobromide): 0
- Mean Number of Convulsions/Mouse, cumulative (mice; 150 mg/kg, All, hydrobromide): 46.61
- Mean Number of Convulsions/Mouse (mice; 150 mg/kg, Mild, hydrobromide): 9.92
- Total Number of convulsions (mice; 150 mg/kg, Mild, hydrobromide): 129
- Mean Number of Convulsions/Mouse (mice; [12]): 12.00
- Total Number of convulsions (mice; [12]): 156
- Mean Number of Convulsions/Mouse, cumulative (mice; 150 mg/kg, Severe + Moderate, hydrobromide): 36.69
- Mean Number of Convulsions/Mouse (mice; [13]): 24.69
- Total Number of convulsions (mice; [13]): 321
- Mean Intensity of Convulsions/Mouse % of Total: Mild (CD-1 mice; [14]): 90.0 % of Total
- Mean Intensity of Convulsions/Mouse % of Total: Moderate (CD-1 mice; [14]): 10.0 % of Total
- Mean Intensity of Convulsions/Mouse % of Total: Severe (CD-1 mice; [14]): 0.0 % of Total
- Mean Number of Convulsions/Mouse (CD-1 mice; [14]): 0.8
- numbers of mice that had convulsions in the dose group (CD-1 mice; [14]): 3/13
- Mean Number of Convulsions/Mouse (CD-1 mice; 100 mg/kg i.p., range-finding study, N = 3/dose group, hydrobromide): 0
- numbers of mice that had convulsions in the dose group (CD-1 mice; 100 mg/kg i.p., second (main) study, N = 10/dose group): 3/10
- Mean Number of Convulsions/Mouse (CD-1 mice; 100 mg/kg i.p., second (main) study, N = 10/dose group, hydrobromide): 1.0
- Mean Intensity of Convulsions/Mouse % of Total: Mild (CD-1 mice; [15]): 21.3 % of Total
- Mean Intensity of Convulsions/Mouse % of Total: Moderate (CD-1 mice; [15]): 25.7 % of Total
- Mean Intensity of Convulsions/Mouse % of Total: Severe (CD-1 mice; [15]): 53.0 % of Total
- Mean Number of Convulsions/Mouse (CD-1 mice; [15]): 46.6
- Mean Number of Convulsions/Mouse (CD-1 mice; 150 mg/kg i.p., range-finding study, N = 3/dose group, hydrobromide): 11.0
- Mean Number of Convulsions/Mouse (CD-1 mice; 150 mg/kg i.p., second (main) study, N = 10/dose group, hydrobromide): 57.3
- numbers of mice that had convulsions in the dose group (CD-1 mice; […] i.p., pooled data N = 13/dose group, hydrobromide): 11/13
- numbers of mice that had convulsions in the dose group (CD-1 mice; […] i.p., second (main) study, N = 10/dose group, hydrobromide): 8/10
- recovery from other treatment-related signs (CD-1 mice; range finding study): tendency to recover more quickly
- threshold for tonic convulsions (CD-1 mice; range finding study, i.p., hydrobromide): 125 mg/kg
- hygroscopicity (DVS, words) ([2]; 0% RH-90% RH): non-hygroscopic
- maximum water uptake (DVS) ([2]; at 90% RH): 0.14 % weight
- stability / degradation compared to bupropion HCl [3]: significant improvements in stability compared to bupropion HCl
- PS (Malvern) 10% [4]: 10% 72 μm
- PS (Malvern) 50% [4]: 50% 245 μm
- PS (Malvern) 90% [4]: 90% 657 μm
- moisture content KF [4]: 0.00%
- pH (aq. 0.5%) [4]: 5.92
- solubility (physchem; organic solvent or mixture, EtOH): 92 mg/mL
- solubility (physchem; organic solvent or mixture, IPA): 12 mg/mL
- solubility (physchem; water): 143 mg/mL
